Common to all, as to assay type: in vivo
Assay [1] relates to Amaranthus tamariscinus (common waterhemp, AMATA), sensitive biotype (w.1). In words: greenhouse experiment, weed control, sensitive common waterhemp (w.1). From the text: (§1) The culture containers used were plastic flowerpots containing loamy sand with approximately 3.0% of humus as the substrate. The seeds of the test plants were sown separately for each species and/or resistant biotype. For the pre-emergence treatment, the active ingredients, which had been suspended or emulsified in water, were applied directly after sowing by means of finely distributing nozzles. The containers were irrigated gently to promote germination and growth and subsequently covered with transparent plastic hoods until the plants had rooted. This cover caused uniform germination of the test plants, unless this had been impaired by the active ingredients. For the post-emergence treatment, the test plants were first grown to a height of 3 to 15 cm, depending on the plant habit, and only then treated with the active ingredients which had been suspended or emulsified in water. For this purpose, the test plants were either sown directly and grown in the same containers, or they were first grown separately as seedlings and transplanted into the test containers a few days prior to treatment. Depending on the species, the plants were kept at 10-25° C. or 20-35° C., respectively. The test period extended over 2 to 4 weeks. During this time, the plants were tended, and their response to the individual treatments was evaluated. The evaluation was carried out by using a scale from 0 to 100. 100 means no emergence of the plants or complete destruction of at least the above-ground parts, and 0 means no damage, or normal course of growth.
(§2) The plants used in a first greenhouse experiment were of the following species and biotype: […]

Assay [2] concerns Amaranthus tamariscinus (common waterhemp, AMATA), PPO resistant biotype 4 containing the ΔG210 mutation (w.6). In words: another greenhouse experiment, weed control, PPO resistant biotype 4 (w.6). To be noted: use rate 4 g/ha; scale 0 to 100.
Excerpt: as §1, with “100 means no emergence of the plants or complete destruction of at least the above-ground parts, and 0 means no damage, or normal course of growth.” left out

Assay [3] has as its system Amaranthus tamariscinus (common waterhemp, AMATA), PPO resistant biotype 2 (w.3). In words: greenhouse experiment, weed control, PPO resistant biotype 2 (w.3). The settings on record: scale 0 to 100.
Excerpt: as §1, §2

Assay [4] has as its system Amaranthus tamariscinus (common waterhemp, AMATA), PPO resistant biotype 1 (w.2). In words: greenhouse experiment, weed control, PPO resistant biotype 1 (w.2). To be noted: for activity on sensitive and resistant weeds (in words): summary of table 2: sensitive (w.1) and resistant weeds (w.2, w.3); for Weed control (%) w.2: scale 0 to 100.
Excerpt: as §1, §2

The test system of assay [5] is Amaranthus tamariscinus (common waterhemp, AMATA), sensitive biotype (w.4). The experiment in a line: another greenhouse experiment, weed control, sensitive common waterhemp (w.4). To be noted: use rate 4 g/ha; scale 0 to 100.
Excerpt: as §1, with “100 means no emergence of the plants or complete destruction of at least the above-ground parts, and 0 means no damage, or normal course of growth.” left out

Assay [6] relates to Amaranthus tamariscinus (common waterhemp, AMATA), PPO resistant biotype 3 containing the ΔG210 mutation (w.5). In words: another greenhouse experiment, weed control, PPO resistant biotype 3 (w.5).
Excerpt: as §1, with “100 means no emergence of the plants or complete destruction of at least the above-ground parts, and 0 means no damage, or normal course of growth.” left out

Where [7] appears, read: use rate 2 g/ha, scale 0 to 100.
[8] abbreviates: use rate 4 g/ha, scale 0 to 100 (100 = complete destruction, 0 = no damage).

For `COC(=O)CCNC(=O)C(C)Sc1cc(-n2c(=O)cc(C(F)(F)F)n(C)c2=O)c(F)cc1Cl` (stereo not drawn) [(I).1, tiafenacil], the results for the “Weed control (%) w.1” value in assay [1] (setting [7]) and in assay [1] (setting [8]) were 90% and 99%, respectively. Also, the “Weed control (%) w.6” value in assay [2] came to 88%. The “Weed control (%) w.3” value in assay [3] (use rate 2 g/ha) is 78%; in assay [3] (use rate 4 g/ha), 85%. The “activity on sensitive and resistant weeds (in words)” value in assay [4] is “very good activity on both sensitive (w.1) and resistant weeds (w.2, w.3)”; in assay [6] (summary of table 3: sensitive (w.4) and resistant weeds (w.5, w.6) containing the ΔG210 mutation), “very good activity on both sensitive (w.4) and resistant weeds (w.5, w.6)”. Also, the “Weed control (%) w.2” value in assay [4] (use rate 2 g/ha) came to 83%; in assay [4] (use rate 4 g/ha), 91%. In addition, the “Weed control (%) w.4” value in assay [5] amounted to 92%. Moreover, the “Weed control (%) w.5” value in assay [6] (use rate 4 g/ha, scale 0 to 100) was 95%.

`C#CCOc1cc(-n2nc3n(c2=O)CCCC3)c(Cl)cc1Cl` [azafenidin, reference compound]: the “Weed control (%) w.1” value in assay [1] (setting [7]) amounted to 95%; in assay [1] (setting [8]), 98%. Further, the “Weed control (%) w.3” value stood at 70% in assay [3] (use rate 2 g/ha) and 72% in assay [3] (use rate 4 g/ha). The “activity on sensitive and resistant weeds (in words)” value in assay [4] is given as “much weaker control of resistant in comparison to sensitive biotypes”. For the same compound, the “Weed control (%) w.2” value in assay [4] (use rate 2 g/ha) is given as 67%; in assay [4] (use rate 4 g/ha) it was 73%.

Source of the values: patent US11723365B2, “Method for controlling PPO resistant weeds” (BASF SE, priority 2016, dated 2023).
